According to a melting point compilation (Tetko et al.; mined from patent text by program, amines drawn as free bases though some values may be those of a salt):

Row | SMILES | melting point [°C]
1 | O=C(O)CCC(=O)OCc1ccc(-c2nn(Cc3ccccc3)c3cc(F)ccc23)o1 | 120 to 122
2 | CCCCC(=NNC(=O)c1ccccc1)c1ccncc1 | 142
3 | CC(C)(C)OC(=O)N1CCN(C(=O)OC(C)(C)C)C1=S | 117 to 118
4 | O=C(O)Cc1ccc(OCCNC(=O)C2Cc3ccccc3N2S(=O)(=O)c2ccc(-c3ccc(F)cc3F)cc2)cc1 (configuration not stated) | 92 to 99
5 | Clc1ccccc1N1CCN=C1C(Cn1ccnc1)c1ccccc1 (configuration not stated) | 118 to 122
6 | COC(=O)CN1C(=O)C2=C(c3ccc(Cl)cc3C(c3ccccc3Cl)=NC2)C1C (configuration not stated) | 221 to 223
7 | CCOC(=O)C1=C(COCCO)NC(C)=C(C(=O)OC)C1c1ccccc1Cl (configuration not stated) | 125 to 130
8 | O=C(CSc1ccccc1)Nc1ccccc1C(=O)O | 166 to 167
9 | CON=C(c1cc(C)no1)c1ccccc1COc1ncc(C(F)(F)F)cc1Cl | 77 to 79
10 | CC(=O)C1=C(O)C(C(=O)C=Cc2ccc(O)cc2)C(=O)OC1=O (configuration not stated) | 194 to 196
11 | CCCNC1=NC(c2cccc(-c3cncnc3)c2)(c2ccc(OCCC)c(C)c2)C(=O)N1C (configuration not stated) | 64 to 66
12 | COc1ccc(OC)c(C=CC(=O)N(C)O)c1 | 111 to 112
13 | NC(=O)n1nc(-c2ccc(F)cc2)cc1N | 140
14 | N#Cc1cc(C(F)(F)F)[nH]c1-c1sc(Cl)c(Cl)c1Cl | 220 to 221
15 | CN1C(=O)C[C@@H](c2ccccc2)[C@H]1C(=O)c1ccccc1 | 115 to 116
16 | Cc1oc(-c2ccccc2)nc1CCCCCOC(C)(C)C(=O)O | 66 to 68
17 | Nc1cccc(C#CC=Cc2cccc(N)c2)c1 | 105 to 106
18 | COc1ccc(-c2cc(-c3ccc(-c4c(Cc5ccccc5)sc5ccccc45)cc3)ccc2OC(Cc2ccccc2)C(=O)O)cc1 (configuration not stated) | 82 to 84
19 | Cc1cc(C)cc(-c2c(O)c3ccc(Cl)cc3[nH]c2=O)c1 | 369
20 | CCCCn1c2c(c3ccccc3c1=O)C(=O)c1cc3c(cc1-2)OCO3 | 200 to 201
21 | CN(C)CCCn1c2ccc(O)cc2c2c3c(c(-c4ccccc4)cc21)C(=O)NC3=O | 185 to 189
22 | NS(=O)(=O)c1ccc(-c2cnn(CC(F)=C(F)F)c(=O)c2-c2ccc(F)cc2)cc1 | 173 to 175

Row | SMILES | melting point [°C]
23 | CCOC(=O)C(F)=C(C)NC(=O)Nc1cc(C(=O)OC(C)C)c(Cl)cc1F | 150 to 152
24 | CCc1ccc(C#CC(C)N(O)C(=O)NC)cc1 (configuration not stated) | 126 to 128
25 | COc1cc2c3c(ccc([N+](=O)[O-])c3c1[N+](=O)[O-])C(=O)N(O)C2=O | 272 to 273
26 | CS(=O)(=O)Nc1nccc(Oc2ccc3c(C(=O)Nc4ccc(F)c(C(F)(F)F)c4)cccc3c2)n1 | 246
27 | O=c1c(-c2ccc(O)cc2)coc2cc(O)ccc12 | 227 to 228
28 | O=C1CN=C(c2cccc(Cl)c2)c2cc(C(=O)c3ccc(Cl)cc3)ccc2N1 | 265
29 | CCCCCCCCCC(=O)NC(=O)OCc1nc(C(C)C)c(Sc2cc(Cl)cc(Cl)c2)n1Cc1ccncc1 | 84 to 86
30 | CNC(=O)Nc1cc(-c2ccc(S(C)(=O)=O)cc2)c(-c2ccc(F)cc2)s1 | 70 to 75
31 | COCCOCCCOc1ccc(/C=C/C(=O)O)c(Oc2ncc(C(F)(F)F)cc2Cl)c1 | 103 to 104
32 | COC(=O)c1cc(C(=O)OC)cc(N2C(=O)C=CC2=O)c1 | 186 to 187
33 | CC(C)c1nc(CCCO)n(Cc2ccncc2)c1Sc1cc(Cl)cc(Cl)c1 | 106 to 107
34 | Oc1ccc2c(CCCCN3CC=C(c4cccs4)CC3)c[nH]c2c1 | 181
35 | CC(C)(C)[PH](=O)Cc1ccccc1 (configuration not stated) | 80 to 82
36 | O=S(=O)(NCCCCOc1ccc(-n2ccnc2)cc1)c1ccccc1 | 110 to 111
37 | COC(CC1OCC(Br)([N+](=O)[O-])CO1)OC (configuration not stated) | 95 to 97
38 | CCCCCCC(C)Oc1ccc(N=Cc2ccccc2)cc1 (configuration not stated) | 47.3
39 | COCN(C(=O)CCl)c1c(OC)cccc1OC | 104 to 106
40 | O=C(CCCC(Cc1cccc2ccccc12)C(=O)O)c1ccccc1 (configuration not stated) | 134 to 136
41 | O=C(Nc1ccc(-n2nc(C(F)(F)F)cc2C(F)(F)F)cc1)c1ccc(F)c(F)c1F | 122 to 124
42 | O=C(OCC(Cl)(Cl)Cl)ON1C(=O)CCC1=O | 98 to 101
43 | COC1=CC=C2C3Cc4ccc(O)c5c4C2(CCN3C)C1O5 (configuration not stated) | 114 to 116
44 | CCN(CC)CCNc1ccc(NCCN(CC)CC)c2c1C(=O)c1ccccc1C2=O | 109

Row | SMILES | melting point [°C]
45 | CC(C)C(NS(=O)(=O)c1ccc(Cl)s1)c1cccn1Cc1ccccc1 (configuration not stated) | 102 to 103
46 | COc1ccc2[nH]cc(-c3cc4c(-c5c(C)noc5C)ccnc4[nH]3)c2c1 | 270 to 271
47 | CCCCS(=O)(=O)C(c1ccc(Cl)cc1)c1ccc(Cl)cc1 | 104 to 106
48 | CCOCc1nc2c(N)nc3cc(-c4cccnc4)ccc3c2n1Cc1ccc(CNS(C)(=O)=O)cc1 | 228 to 229
49 | CC(C)c1ccccc1-n1c(=O)[nH]c2c(C(N)=O)nc(-c3cccc(O)c3)nc21 | 322 to 324
50 | O=C(CSCCCOc1ccccc1)NNC(=O)c1ccc(O)cc1 | 146 to 151
51 | COC(=O)c1ccc(Nc2ccc(C#N)cc2N)cc1 | 164 to 165
52 | CC(c1ccccc1)(c1ccc(O)cc1)c1ccc(O)cc1 | 185 to 187
53 | Nc1ccc(Sc2ccccc2)cc1F | 48 to 49
54 | O=C1c2c(O)ccc(O)c2-c2nn(CCCNCCO)c3ccc(NCCNCCO)c1c23 | 159 to 163
55 | CCOC(=O)c1cc([N+](=O)[O-])cn1CCC(C)C | 46 to 47
56 | C#CC1(O)C(C)CC2C3CCC4=CC(=O)CCC4(C)C3=CCC21C (configuration not stated) | 213 to 218
57 | Cc1c(CCN(C)C(=O)OC(C)(C)C)c2cc(S(=O)(=O)c3ccccc3)ccc2n1C | 147 to 149
58 | CCCCc1ccc(-c2c(C)[nH]c(=O)n2C)cc1 | 180
59 | CSc1nnc(-c2ccc(OCC(O)CNCCOc3ccc(O)c(C(N)=O)c3)cc2)n1C (configuration not stated) | 123 to 125
60 | C=C(C(=O)OC)[C@@H](O)c1ccccc1 | 48
61 | CCc1c(-c2ccccc2)n(-c2ccccc2Cl)c(-c2ccccc2)cc1=O | 165 to 166
62 | Nc1ccc(C(=O)N2CCOCC2)cc1OCc1ccc(-c2ccccc2)c(-c2nnnn2C(c2ccccc2)(c2ccccc2)c2ccccc2)c1 | 95 to 105
63 | CC(=O)NC(C)(C)Cc1ccc(N(C)C)cc1 | 156 to 157
64 | Cn1c(CBr)c(C(=O)c2ccccc2)c(=O)n(C)c1=O | 164 to 167
65 | O=C(NCc1cccnc1)c1ccc2n1Cc1ccccc1N(C(=O)c1ccc3c(c1)Cc1ccccc1-3)C2 | 116 to 119

Continued, values first:

Row | melting point [°C] | SMILES
66 | 133 to 138 | CCCCOCCOc1ccc(-c2ccc3c(c2)C=C(C(=O)O)CCN3Cc2ccccc2)cc1
67 | 284 to 287 | O=c1[nH]c2ncc(-c3ccc(-n4ccnc4)cc3)nc2n1CC1CCCCC1
68 | 128 to 131 | CN1CCCC1=NC(=O)Nc1ccc(C(F)(F)F)cc1
69 | 176 to 182 | OCC1CCc2ncsc2C1 (configuration not stated)
70 | 180 | COc1ccc(C2CSc3ccccc3N(CC(=O)O)C2=O)cc1 (configuration not stated)
71 | 224 to 226 | COC(=O)c1cc(OC)c(Cc2c(N)nc(N)nc2O)c(OC)c1
72 | 140 to 142 | O=C(NCCBr)C1=C(C(=O)Nc2cc(OC3CCCC3)c(Cl)cc2F)CCCC1
73 | 136 | COc1ccc(S(=O)(=O)N2C(=O)C(c3ccccc3OC)(N3CCC[C@H]3C(=O)OC(C)(C)C)c3cc(Cl)ccc32)c(OC)c1 (some centres not stated)
74 | 132 to 139 | Fc1ccc(-c2ccn(C3CCN(Cc4ccccc4)CC3)c2-c2ccncc2)cc1
75 | 154 to 156 | CC(=O)NCCC1=CCc2ccc3nc(C)oc3c21
76 | 96 to 98 | CNC(=S)NCCOCc1c[nH]cn1
77 | > 300 | COc1cccc2nc(-c3ccc(OCCO)c(-c4ccc(S(C)(=O)=O)cc4)n3)[nH]c(=O)c12
78 | 139 | CNc1nccn2c(Br)cnc12
79 | 57 to 58 | COC(=O)CNCc1ccc(OCc2ccccc2)cc1
80 | 220 to 222 | Cn1ccc(C(=O)c2ccc(O)c(Cl)c2Cl)n1
81 | 105 to 108 | CC(=O)N(Cc1cccs1)C1(c2ccc(Cl)cc2)CCC1
82 | 77 to 78 | O=C(O)COCc1cccc(-c2ccccc2OC2OC(CO)C(O)C(O)C2O)c1 (configuration not stated)
83 | 97 to 98 | CCOC(=O)ON(C(=O)NC)c1ccc(Cl)c(Cl)c1
84 | 248 to 250 | O=C(O)c1ccc2c(COc3cccnc3)csc2c1

Row | melting point [°C] | SMILES
85 | 159 to 160 | O=C1N[C@H]2OC=N[C@@]12c1ccccc1
86 | 152 | COc1nccnc1NS(=O)(=O)c1scc(Cl)c1Cl
87 | 144 to 145 | COC(=O)COc1cc(N(C(=O)CCl)C(=O)C2=C(C(=O)OC)CCCC2)c(F)cc1Cl
88 | 116 to 117 | O=C(CO)c1ccc(F)cc1
89 | 154 to 159 | N#CCc1cc(C(=O)O)cs1
90 | 143 to 150 | CC(C(=O)O)c1ccc(CC2CCCCC2=NO)cc1 (configuration not stated)
91 | 147 | Nc1cc(C(=O)NC2CCC2)n[nH]1
92 | 136 to 137 | Cc1cc(OCCO)c2ccccc2c1O
93 | 112 | Cc1ccc(S(=O)(=O)N2CC[C@@H](C)[C@@H]2c2ccc(F)cc2)cc1 (racemic)
94 | 117 to 118 | S=C=Nc1ccc2oc(-c3sccc3CN3CCOCC3)nc2c1
95 | 180 to 181 | CC#CCN(C)c1ccc(OC23CC4CC(CC(C4)C2)C3)cc1
96 | 163 to 165 | CCN1CCN(Cc2ccc(COc3cccc4c3CN(C3CCC(=O)NC3=O)C4=O)cc2)CC1=O (configuration not stated)
97 | 207 to 208 | CCc1nc2cnc3cc(Br)cnc3c2n1CC(C)(C)O
98 | 123 to 124 | O=C(OCc1ccccc1)C1CCCc2c1c1ccccc1n2C(=O)c1ccc(Cl)cc1 (configuration not stated)
99 | 91 to 93 | Fc1cccc(OCc2nnc(-c3ccc4c(c3)CCO4)o2)c1
100 | 69 to 73 | CC(C)(C)NCC(O)c1ccc(OCc2ccccc2)cn1 (configuration not stated)
101 | 179 | Nc1ccc2c(c1)S(=O)(=O)NCCO2
102 | 162 to 164 | O=C(NCCN1CCNC1=O)Nc1ccccc1
